Data published in article PMC6337588, “Multi-Target Cinnamic Acids for Oxidative Stress and Inflammation: Design, Synthesis, Biological Evaluation and Modeling Studies” (Molecules, 2018).
Several values for one entry are separate records, joined by “and”; a condition that tells them apart may be missing. Equal values may be shown once.

Columns and labels:
[1] = Competition with DMSO for hydroxyl radicals (Fe3+/ascorbic acid system); format: biochemical; conditions: hydroxyl radical scavenging
Procedure: Competition of the novel substituted acids with DMSO for hydroxyl radicals was measured. Hydroxyl radicals were generated using the Fe^3+/ascorbic acid system and expressed as a percentage inhibition of formaldehyde production in the presence of each compound at 100 μM (Table 2). All the synthesized derivatives strongly scavenge hydroxyl radicals at 100 μM in comparison to the reference compound Trolox.
The hydroxyl radicals generated by the Fe^3+/ascorbic acid system, were detected by the determination of formaldehyde produced from the oxidation of DMSO (Table 2). Trolox was used as reference compound [17, 18, 28].

[2] = Non enzymatic assay of superoxide radical scavenging activity (PMS/NADH/NBT); format: biochemical
Procedure: Superoxide radical is a main cause of oxidative stress, expressing its biological toxicity by the inactivation of iron-sulfur cluster containing enzymes. The superoxide anion radical (O2^−^•) is less toxic than the hydroxyl radical, but still being one of the most known toxic reactive oxygen species (ROS). In this assay the superoxide anion radicals were generated by a non-enzymatically assay and the compounds are tested at 100 μM final concentration (Table 2). Caffeic acid (CA) has been used as a reference compound. Compound 4ii presented the highest activity, followed by compound 3ii. We succeeded to derive a quantitative-structure activity relationship model for this activity in which the topological polar surface (TPAS) of the compounds seem to govern the superoxide anion scavenging activity:% Superoxide Anion Scavenging Activity (100 µM) = 0.019 (±0.007) TPSA + 0.813 (±0.358) n = 6, r = 0.962, r^2 = 0.926, q^2 = 0.694, s = 0.122, Q = 7.885, F1,6 = 3.701, α = 0.1 clog P vs. TPSA 0.
The superoxide radicals are generated by mixing N-methylphenazonium methyl sulfate (PMS), NADH and air–oxygen and determined by the nitroblue tetrazolium method and measured at 560 nm (Table 2). Caffeic acid was used as reference compound [17, 18, 28].

[3] = Inhibition of linoleic acid peroxidation (AAPH); format: biochemical; conditions: anti-lipid peroxidation
Source text: We also used water-soluble 2,2′-[…](2-amidinopropane) hydrochloride (AAPH) for the generation of free radicals. AAPH has been extensively used as a clean and controllable source of thermally produced alkylperoxyl free radicals. The peroxyl radicals produced by the action of AAPH show total similarity to cellular activities such as lipid peroxidation. […] It seems that the presence of 3,5-di-tert-butyl-group greatly enhances protection against lipid peroxidation (6i/ii and 7i/ii followed by 3ii and 5ii). The lipid peroxidation inhibitory activity seems to be concentration dependent.
2,2’-Azobis(2-amidinopropane) dihydrochloride (AAPH) was used as a free radical initiator to start the oxidation reaction. The method was based on the production of conjugated diene hydroperoxide by oxidation of linoleic acid at 234 nm expressed as an increased absorption. Trolox was used as reference compound (93%) (Table 2).

[4] = Reducing activity of the stable radical DPPH; format: biochemical
Procedure: The substituted acids were monitored for the antioxidant activity by the use of the stable 2,2-diphenyl-1-picrylhydrazyl radical (DPPH) at concentration 50 µM and 100 µM after 20 and 60 min (Table 1). In this assay the DPPH radical is reduced by single electron transfer from the antioxidant. Strong antioxidants are the phenoxide anions from phenolic compounds like catechol and derivatives, such as nordihydroguaretic acid (NDGA), the reference compound. The compounds presented medium reducing abilities from 29–61%, due to steric reasons; small differences were found among the compounds with time and concentration. 4-Br-substituted-3 phenyl acetic acid derivatives (Series I) are equipotent to 4-OH-substituted-3 phenyl acetic acid derivatives (Series II). No differences were observed between 4i and 5i and 4ii and 5ii.
To a solution of DPPH in absolute ethanol an equal volume of the compounds dissolved in DMSO was added. The final concentrations of the measured solutions of the novel acids were 50 and 100 µM starting from a stock solution (10 mM) in DMSO. The absorbance was recorded at 517 nm, after 20 and 60 min at room temperature (Table 1).

[5] = Experimental lipophilicity as RM values by reversed phase TLC (RPTLC); format: physicochemical; conditions: methanol/water 77/23 with 0.1% acetic acid, 24 °C, average of at least 5 measurements
Source text: Lipophilicity is a physicochemical property correlated with the biological activity. Lipophilicity influences ligand-target binding interactions, solubility, absorption, distribution, bioavailability, metabolism and elimination (ADME) and toxicological outcomes. The lipophilicity of the novel cinnamic acids was experimentally measured as RM values using a reverse phase thin layer chromatography (RPTLC) method. This is acknowledged as a reliable, fast and convenient approach for expressing lipophilicity (Table 1). RM relates to the thermodynamic Rf value in a logarithmic form. Bate-Smith and Westall firstly determined lipophilicity as RM values in 1950 [31]. The Br-substituted derivatives 1i–7i are more lipophilic than the OH-substituted ones 1ii–7ii which can be easily explained by their structural characteristics.
Reversed phase TLC (RPTLC) was performed on silica gel plates impregnated with 55% (v/v) liquid paraffin in light petroleum ether. The mobile phase was a methanol/water mixture (77/23, v/v) containing 0.1% of acetic acid. The plates were developed in closed chromatography tanks saturated with the mobile phase at 24 °C. Spots were detected under UV light. RM values were determined from the corresponding Rf values (from five individual measurements) using the equation RM = log[(1/Rf) − 1] [17, 18, 28].

[6] = molecular target: T1, soybean lipoxygenase (Glycine max, UniProt P08170); test: Soybean lipoxygenase inhibition in vitro; format: biochemical; conditions: for IC50: sodium linoleate 0.1 mM, 234 nm, read-out: LOX IC50
T1 construct: purchased Sigma Chemical, Co. (St. Louis)
T1 sequence (P08170 1-839): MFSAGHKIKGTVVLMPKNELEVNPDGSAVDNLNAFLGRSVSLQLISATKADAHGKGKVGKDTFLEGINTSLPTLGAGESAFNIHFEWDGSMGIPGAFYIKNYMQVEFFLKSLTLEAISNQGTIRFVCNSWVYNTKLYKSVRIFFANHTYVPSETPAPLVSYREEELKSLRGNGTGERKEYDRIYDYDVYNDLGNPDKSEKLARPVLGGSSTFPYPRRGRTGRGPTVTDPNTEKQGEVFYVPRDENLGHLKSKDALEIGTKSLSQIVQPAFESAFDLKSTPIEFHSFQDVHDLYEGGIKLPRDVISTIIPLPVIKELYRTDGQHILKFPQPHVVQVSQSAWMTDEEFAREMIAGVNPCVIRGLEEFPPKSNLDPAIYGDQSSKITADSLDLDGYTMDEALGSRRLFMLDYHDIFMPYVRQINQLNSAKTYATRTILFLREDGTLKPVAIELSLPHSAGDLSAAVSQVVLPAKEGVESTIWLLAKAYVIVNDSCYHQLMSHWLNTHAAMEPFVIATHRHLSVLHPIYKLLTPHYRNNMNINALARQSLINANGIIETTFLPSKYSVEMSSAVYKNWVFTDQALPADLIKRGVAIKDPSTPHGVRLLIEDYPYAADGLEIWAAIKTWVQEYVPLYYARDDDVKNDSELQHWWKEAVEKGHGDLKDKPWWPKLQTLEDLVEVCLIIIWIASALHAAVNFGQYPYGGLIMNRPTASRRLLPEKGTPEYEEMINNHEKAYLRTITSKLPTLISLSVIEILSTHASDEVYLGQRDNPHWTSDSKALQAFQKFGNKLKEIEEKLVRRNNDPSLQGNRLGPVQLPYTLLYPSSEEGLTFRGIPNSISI
Procedure: Many research groups have used readily obtainable soybean lipoxygenase, which is a homologue of mammalian lipoxygenase and well studied. Due to its availability and its well-characterised crystal structure, soybean LOX was selected to be used in this study.
In vitro study was evaluated as reported previously by our group. The tested compounds were incubated at room temperature with sodium linoleate (0.1 mM) and 0.2 mL of enzyme solution (1/9 × 104 w/v in saline). The method was based to the conversion of sodium linoleate to 13-hydroperoxylinoleic acid at 234 nm. […] In order to determine the IC50 values different concentrations were used.

[7] = ABTS+• decolorization assay; format: biochemical; conditions: 1 min, 734 nm
Procedure: No role for lipophilicity was found. Oxidation of ABTS with potassium persulfate generates directly the ABTS radical cation (ABTS^+•) with no involvement of an intermediary radical, which is then reduced upon adding electron-donating antioxidants.
In order to produce the ABTS radical cation (ABTS^+•), ABTS stock solution in water (7 mM) was mixed with potassium persulfate (2.45 mM) and left in the dark at room temperature for 12–16 h before use. Our published experimental technique was used (Table 2). The results are recorded after 1 min of the mixing solutions at 734 nm. The results were compared to the appropriate standard inhibitor Trolox.

Compound	HO•% 100 µM [1]	O2−•% 100 µM [2]	AAPH% 50 µM [3]	AAPH% 100 µM [3]	RA% 50 µM 20 min [4]	RA% 50 µM 60 min [4]	RA% 100 µM 20 min [4]	RA% 100 µM 60 min [4]	RM (±SD) [5]	IC50 [6]	melting point	ABTS+•% 100 µM [7]	LOX % Inhibition 100 µM ([6]; 100 µM)	inhibition at 100 µM ([6]; 100 µM, read-out: LOX % Inhibition 100 µM)
O=C(O)C(=Cc1cccc(Oc2ccccc2)c1)c1ccc(O)cc1 [Compound 1ii, 2-(4-Hydroxyphenyl)-3-(3-phenoxyphenyl)acrylic acid]	100%	8%	22%	94%	40%	39%	45%	47%	−0.537 (0.002)	91.5 µM	105 to 107 °C	83.4% and 83%	–	–
CN(C)c1ccc(C=CC=C(C(=O)O)c2ccc(O)cc2)cc1 [Compound 3ii, 5-(4-(Dimethylamino)phenyl)-2-(4-hydroxyphenyl)penta-2,4-dienoic acid]	99%	85%	71%	95%	43%	35%	44%	46%	−0.642 (0.032)	89 µM	204 to 205 °C	63%	–	–
O=C(O)C(=CC(Br)=Cc1ccccc1)c1ccc(Br)cc1 [Compound 4i, 4-Bromo-2-(4-bromophenyl)-5-phenylpenta-2,4-dienoic acid]	83%	46%	52%	85%	30%	30%	38%	36%	0.423 (0.017)	–	211 to 212 °C	24%	28%	27.9%
O=C(O)C(=CC(Br)=Cc1ccccc1)c1ccc(O)cc1 [Compound 4ii, 4-Bromo-2-(4-hydroxyphenyl)-5-phenylpenta-2,4-dienoic acid]	96%	100%	59%	97%	34%	46%	35%	37%	0.011 (0.001)	69 µM	155 to 157 °C	24%	–	–
CC(=Cc1ccccc1)C=C(C(=O)O)c1ccc(O)cc1 [Compound 5ii, 2-(4-Hydroxyphenyl)-4-methyl-5-phenylpenta-2,4-dienoic acid]	89%	8%	53%	93%	32%	39%	30%	41%	−0.565 (0.003)	81.5 µM	90 to 91 °C	35%	–	–
CC(C)(C)c1cc(C=C(C(=O)O)c2ccc(Br)cc2)cc(C(C)(C)C)c1O [Compound 7i, 2-(4-Bromophenyl)-3-(3,5-di-tert-butyl-4-hydroxyphenyl)acrylic acid]	87%	54%	61%	100%	34%	35%	30%	31%	1.151 (0.021)	72.5 µM	137 to 138 °C	28%	–	–
CC(C)(C)c1cc(C=C(C(=O)O)c2ccc(O)cc2)cc(C(C)(C)C)c1O [Compound 7ii, 3-(3,5-di-tert-Butyl-4-hydroxyphenyl)-2-(4-hydroxyphenyl)acrylic acid]	72%	69%	69%	100%	33%	35%	33%	34%	0.654 (0.016)	57.5 µM	139 to 140 °C	34%	–	–
